# Test results published in US6914045B2, “Glycopeptide antibiotics” (Wyeth Holdings Corporation, priority 2001, dated 2005).
# Assays:
# Assay in all cases: in vitro antibacterial evaluation, MIC by broth dilution
# Assay type in all cases: cell-based
# [1] = tested on: Escherichia coli; settings: 18 hours at 35° C.
# [2] = tested on: Streptococcus sp.; settings: broth dilution, 18 hours at 35° C.
# Outline: (§1)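 Step 1: dilute antibiotic across 64-0.06 μg/mL in Muller-Hinton II […]. Step 2: inoculate at 5×10^5 CFU/mL.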
# [3] = tested on: Enterococcus sp.; settings: broth dilution, 18 hours at 35° C.
# Outline: as §1
# [4] = tested on: Staphylococcus sp.; settings: broth dilution, 18 hours at 35° C.
# Outline: as §1
smiles,measurement,setting,value
CC(C)=CCN1CC(C(O)C2NC(=O)C(C(O)C3CNC(=N)N3)NC(=O)C(Cc3ccc(OC4OC(CO)C(OC5OC6COC7(OC6C(O)C5O)C5CC6CC(C5)CC7C6)C(O)C4O)cc3)NC(=O)C(C(C)c3ccccc3)NC(=O)CNC(=O)C(CO)NC2=O)N(C2OC(CO)C(O)C(O)C2O)C1=N (stereo not drawn) [Example 225],MIC Escherichia coli (ATCC 25922),[1],128 µg/mL
same,MIC Escherichia coli (GC 4559),[1],128 µg/mL
same,MIC Escherichia coli (GC 4560),[1],4 µg/mL
same,MIC Streptococcus agalactiae (GC 4564),[2],0.5 µg/mL
same,MIC Streptococcus pneumoniae (ATCC 6301),[2],0.5 µg/mL
same,MIC Streptococcus pneumoniae (GC 1894),[2],<0.12 µg/mL
same,MIC Streptococcus pneumoniae (GC 4565),[2],1 µg/mL
same,MIC Streptococcus pyogenes (GC 4563),[2],0.5 µg/mL
same,MIC Streptococcus pneumoniae (ATCC 6301),"[2]; inoculum 5×10^5 CFU/mL, strain ATCC 6301",0.5 µg/mL
same,MIC Streptococcus pneumoniae (GC 1894),"[2]; inoculum 5×10^5 CFU/mL, strain GC 1894",<0.12 µg/mL
same,MIC Streptococcus pyogenes (GC 4563),"[2]; inoculum 5×10^5 CFU/mL, strain GC 4563",0.5 µg/mL
same,MIC Streptococcus agalactiae (GC 4564),"[2]; inoculum 5×10^5 CFU/mL, strain GC 4564",0.5 µg/mL
same,MIC Streptococcus pneumoniae (GC 4565),"[2]; inoculum 5×10^5 CFU/mL, strain GC 4565",1 µg/mL
same,MIC Enterococcus avium (GC 4558),[3],4 µg/mL
same,MIC Enterococcus faecalis (ATCC 29212),[3],8 µg/mL
same,MIC Enterococcus faecalis (GC 2242),[3],8 µg/mL
same,MIC Enterococcus faecalis (GC 2691),[3],16 µg/mL
same,MIC Enterococcus faecalis (GC 3059),[3],16 µg/mL
same,MIC Enterococcus faecalis (GC 4552),[3],8 µg/mL
same,MIC Enterococcus faecalis (GC 4553),[3],4 µg/mL
same,MIC Enterococcus faecalis (GC 4554),[3],16 µg/mL
same,MIC Enterococcus faecalis (GC 6189),[3],16 µg/mL
same,MIC Enterococcus faecium (GC 2243),[3],4 µg/mL
same,MIC Enterococcus faecium (GC 4556),[3],8 µg/mL
same,MIC Enterococcus faecium (GC 4557),[3],1 µg/mL
same,MIC Enterococcus faecalis (ATCC 29212),"[3]; inoculum 5×10^5 CFU/mL, strain ATCC 29212",8 µg/mL
same,MIC Enterococcus faecalis (GC 2242),"[3]; inoculum 5×10^5 CFU/mL, strain GC 2242",8 µg/mL
same,MIC Enterococcus faecium (GC 2243),"[3]; inoculum 5×10^5 CFU/mL, strain GC 2243",4 µg/mL
same,MIC Enterococcus faecalis (GC 2691),"[3]; inoculum 5×10^5 CFU/mL, strain GC 2691",16 µg/mL
same,MIC Enterococcus faecalis (GC 3059),"[3]; inoculum 5×10^5 CFU/mL, strain GC 3059",16 µg/mL
same,MIC Enterococcus faecalis (GC 4552),"[3]; inoculum 5×10^5 CFU/mL, strain GC 4552",8 µg/mL
same,MIC Enterococcus faecalis (GC 4553),"[3]; inoculum 5×10^5 CFU/mL, strain GC 4553",4 µg/mL
same,MIC Enterococcus faecalis (GC 4554),"[3]; inoculum 5×10^5 CFU/mL, strain GC 4554",16 µg/mL
same,MIC Enterococcus faecium (GC 4556),"[3]; inoculum 5×10^5 CFU/mL, strain GC 4556",8 µg/mL
same,MIC Enterococcus faecium (GC 4557),"[3]; inoculum 5×10^5 CFU/mL, strain GC 4557",1 µg/mL
same,MIC Enterococcus avium (GC 4558),"[3]; inoculum 5×10^5 CFU/mL, strain GC 4558",4 µg/mL
same,MIC Enterococcus faecalis (GC 6189),"[3]; inoculum 5×10^5 CFU/mL, strain GC 6189",16 µg/mL
same,MIC Staphylococcus aureus (ATCC 29213),[4]; strain ATCC 29213,4 µg/mL
same,MIC Staphylococcus aureus (GC 1131),[4]; strain GC 1131,8 µg/mL
same,MIC Staphylococcus aureus (GC 3051),[4]; strain GC 3051,4 µg/mL
same,MIC Staphylococcus aureus (GC 3053),[4]; strain GC 3053,8 µg/mL
same,MIC Staphylococcus aureus (GC 4541),[4]; strain GC 4541,4 µg/mL
same,MIC Staphylococcus aureus (GC 4542),[4]; strain GC 4542,8 µg/mL
same,MIC Staphylococcus aureus-SMITH (GC 4543),[4]; strain GC 4543,4 µg/mL
same,MIC Staphylococcus aureus (GC 4544),[4]; strain GC 4544,8 µg/mL
same,MIC Staphylococcus aureus (GC 4545),[4]; strain GC 4545,4 µg/mL
same,MIC Staphylococcus haemolyticus (GC 4546),[4]; strain GC 4546,4 µg/mL
same,MIC Coagulase Negative Staphylococcus (GC 4547),[4]; strain GC 4547,4 µg/mL
same,MIC Coagulase Negative Staphylococcus (GC 4548),[4]; strain GC 4548,2 µg/mL
same,MIC Coagulase Negative Staphylococcus (GC 4549),[4]; strain GC 4549,2 µg/mL
same,MIC Coagulase Negative Staphylococcus (GC 4551),[4]; strain GC 4551,4 µg/mL
